As a reminder, the IC50 is the point on the concentration scale where inhibition reaches its midpoint.

The values below come from patent publication US7226936B2, “Pyridinic sulfonamide derivatives method of production and use thereof” (University De Liege, priority 2001, dated 2007).

One test deals with rat paw oedema. The test can be described thus: Carrageenin-induced rat paw oedema model. It is filed as in vivo, Wistar rats. Particulars: for percentage of growth of the paw after injection of carrageneen: 1 h before carrageenin, paw weighed 3 h after, mean±standard deviation, n=6, control 96 ± 8.7. As to the method:
The activity of the derivatives has also been evaluated by using a rat paw oedema pharmacological model.
In Carrageenin-induced rat paw oedema model, Wistar rats were used. The mean weight of the animals was 250 g. The animals were treated with an intraperitoneal injection of the drug at the appropriate concentration (solution at the concentration of 10 mg/mL in DMSO). Lambda carrageenin (0.1 mL; 1%) was injected one hour later in the plantar region of the right hand paw. Three hours thereafter, the rats were euthanasied by injection of nembutal (100 mg/kg) and the paws were cutted at the ankle. The swelling was calculated as a percentage increase in the weight of the control paw.
Results are expressed as percentage of growth of the paw after injection of carrageneen (mean±standard deviation, n=6).
For orientation: Carrageenan injected into the paw causes an acute inflammation.

The next test concerns the target T1, COX-2 (Homo sapiens, UniProt P35354).
T1 construct: endogenous in cells; host or cells: whole blood (blood cells)
T1 sequence (P35354 18-604): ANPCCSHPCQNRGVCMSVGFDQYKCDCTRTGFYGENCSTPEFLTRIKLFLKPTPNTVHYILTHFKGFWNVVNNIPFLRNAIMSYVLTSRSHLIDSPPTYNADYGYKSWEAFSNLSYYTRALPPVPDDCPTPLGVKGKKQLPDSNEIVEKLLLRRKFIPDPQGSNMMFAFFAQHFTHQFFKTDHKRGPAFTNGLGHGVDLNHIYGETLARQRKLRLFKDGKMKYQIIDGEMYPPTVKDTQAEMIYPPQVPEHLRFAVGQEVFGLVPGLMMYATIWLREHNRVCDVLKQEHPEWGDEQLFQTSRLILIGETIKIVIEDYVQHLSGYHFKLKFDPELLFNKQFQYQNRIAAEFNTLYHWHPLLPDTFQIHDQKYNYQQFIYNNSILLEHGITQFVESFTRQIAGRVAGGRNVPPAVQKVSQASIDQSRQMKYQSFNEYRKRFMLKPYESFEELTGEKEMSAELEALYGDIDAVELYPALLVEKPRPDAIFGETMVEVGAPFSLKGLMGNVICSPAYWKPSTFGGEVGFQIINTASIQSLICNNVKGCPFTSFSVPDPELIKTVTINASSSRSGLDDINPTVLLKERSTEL
Description: whole blood assay, COX-2 inhibition. It is filed as cell-based.

`O=S(=O)(Nc1ccncc1Oc1ccccc1)C(F)(F)F` [Compound 1, N-(3-phenoxy-4-pyridinyl)trifluoromethane-sulfonamide]: the “percentage of growth of the paw after injection of carrageneen” value in the test with rat paw oedema (5 mg/kg intraperitoneal) stood at 101.0 ± 8.1 percentage; with rat paw oedema (10 mg/kg intraperitoneal) it was 74.7 ± 7.2 percentage; with rat paw oedema (30 mg/kg intraperitoneal), 54.1 ± 17.5 percentage. In addition, the “anti-inflammatory effect in vivo (in words)” value in the test on rat paw oedema (conclusion from Table 2) was “presents an anti-inflammatory effect in vivo”. Also, the “activity as COX-2 inhibitor (in words)” value at COX-2 (conclusion from Table 1) was “active as COX-2 inhibitor”. Further, the IC50 on COX-2 (estimated IC50, whole blood assay) is 400 nM.
